How the values were obtained:
Assay in all cases: relative viability (nuclei count vs DMSO), 5 days (fraction); higher = more cells survive
AZ505 + Crizotinib = compound: C1CCC(CC1)N(CCNCCC2=C3C(=C(C=C2)O)NC(=O)CO3)C(=O)CCNCCC4=CC(=C(C=C4)Cl)Cl [AZ505] + C[C@@H](Oc1cc(-c2cnn(C3CCNCC3)c2)cnc1N)c1c(Cl)ccc(F)c1Cl [Crizotinib] (partner 1 µM)
Procedure, shortened: (§1)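 Lung cancer cell lines were seeded in 1536-well plates and dosed by pin tool the next day, with either a single drug or a fixed anchor-drug dose combined with five library-drug doses (not always all listed) spaced in √10 steps. Five days later, one step fixed the cells and stained their nuclei (final 0.05% Triton X-100, 1% formaldehyde, 1 ug/ml Hoechst), and nuclei were counted on 4× images. Relative viability is the nuclei count in treated wells divided by the count in vehicle wells, and each value is the median of duplicate plates.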

AZ505 + Decitabine = compound: C1CCC(CC1)N(CCNCCC2=C3C(=C(C=C2)O)NC(=O)CO3)C(=O)CCNCCC4=CC(=C(C=C4)Cl)Cl [AZ505] + Nc1ncn([C@H]2C[C@H](O)[C@@H](CO)O2)c(=O)n1 [Decitabine] (partner 2 µM)
Procedure, shortened: as §1

Dactolisib + Tozasertib = compound: Cn1c(=O)n(-c2ccc(C(C)(C)C#N)cc2)c2c3cc(-c4cnc5ccccc5c4)ccc3ncc21 [Dactolisib] + Cc1cc(Nc2cc(N3CCN(C)CC3)nc(Sc3ccc(NC(=O)C4CC4)cc3)n2)n[nH]1 [Tozasertib] (partner 0.1 µM)
Procedure, shortened: as §1

Dactolisib + Vorinostat = compound: Cn1c(=O)n(-c2ccc(C(C)(C)C#N)cc2)c2c3cc(-c4cnc5ccccc5c4)ccc3ncc21 [Dactolisib] + O=C(CCCCCCC(=O)Nc1ccccc1)NO [Vorinostat] (partner 1 µM)
Procedure, shortened: as §1

Cell Line	relative viability (AZ505 + Crizotinib; first compound 0.08 µM)	relative viability (AZ505 + Crizotinib; first compound 0.253 µM)	relative viability (AZ505 + Crizotinib; first compound 0.8 µM)	relative viability (AZ505 + Crizotinib; first compound 2.53 µM)	relative viability (AZ505 + Crizotinib; first compound 8 µM)	relative viability (AZ505 + Decitabine; first compound 0.08 µM)	relative viability (AZ505 + Decitabine; first compound 0.253 µM)	relative viability (AZ505 + Decitabine; first compound 0.8 µM)	relative viability (AZ505 + Decitabine; first compound 2.53 µM)	relative viability (AZ505 + Decitabine; first compound 8 µM)	relative viability (Dactolisib + Tozasertib; first compound 0.002 µM)	relative viability (Dactolisib + Tozasertib; first compound 0.006325 µM)	relative viability (Dactolisib + Tozasertib; first compound 0.02 µM)	relative viability (Dactolisib + Tozasertib; first compound 0.06325 µM)	relative viability (Dactolisib + Tozasertib; first compound 0.2 µM)	relative viability (Dactolisib + Vorinostat; first compound 0.002 µM)	relative viability (Dactolisib + Vorinostat; first compound 0.006325 µM)	relative viability (Dactolisib + Vorinostat; first compound 0.02 µM)	relative viability (Dactolisib + Vorinostat; first compound 0.06325 µM)	relative viability (Dactolisib + Vorinostat; first compound 0.2 µM)
NCI-H460	0.78	1.08	0.898	0.784	0.782	0.481	0.525	0.461	0.584	0.521	0.38	0.396	0.387	0.257	0.139	0.643	0.659	0.723	0.127	0.173
NCI-H650	0.604	0.749	0.698	0.642	0.758	0.311	0.343	0.301	0.316	0.288	0.713	0.651	0.711	0.608	0.408	0.414	0.501	0.469	0.306	0.179
NCI-H661		0.941		0.977	0.942	0.54	0.575	0.522	0.575	0.582	0.345	0.366	0.345	0.381	0.353	0.773	0.766	0.71	0.455	0.391
NCI-H1734	0.66	0.657	0.591	0.623	0.658	0.52	0.501	0.45	0.541	0.506	0.212	0.259	0.279	0.23	0.198	0.612	0.705	0.632	0.325	0.258
LXF-289	0.738		0.812	0.788	0.762	0.355	0.39	0.396	0.347	0.386	0.236	0.189	0.226	0.182	0.136	0.879	0.789	0.741	0.815	0.565
H3255	0.702	0.854	0.904	0.913	0.918		0.607	0.583	0.6	0.925	0.525	0.521	0.682	0.51	0.432	0.936	0.783	0.706	0.811	0.594
201T	0.986	1.03	0.932	1.01	1.02	0.857	0.863	0.812	0.877	0.824	0.936	0.965	0.98	0.879	0.474	0.987	0.981	0.976	0.622	0.729

Reference: the supplement of paper PMC10307832
